Measurements from ChEMBL document CHEMBL5154707, “Synthesis and biological evaluation of novel hybrids of phenylsulfonyl furoxan and phenstatin derivatives as potent anti-tumor agents” (Eur J Med Chem, 2022).
The source made the active and inactive calls. The rule behind the calls is not given here.

What was measured:
A2780cisR = test: Antiproliferative activity against human A2780 cisR cells after 48 hrs by MTT assay; type: functional, cell-based
[1] = Cytotoxicity against human HOSE cells after 48 hrs by MTT assay; type: toxicity, cell-based
[2] = Antiproliferative activity against human A2780/PTX cells after 48 hrs by MTT assay
[3] = Resistant factor, ratio of IC50 for antiproliferative activity against human A2780/PTX cells to IC50 for human A2780 cells; type: functional
MDA-MB-231 = test: cells; conditions: Homo sapiens, MDA-MB-231, 48 h
Description: Antiproliferative activity against human MDA-MB-231 cells after 48 hrs by MTT assay

A2780 [4] = test: Induction of nitric oxide release in human A2780 cells measured by Griess reagent based assay; type: functional, cell-based
[5] = Resistant factor, ratio of IC50 for antiproliferative activity against human A2780 cisR cells to IC50 for human A2780 cells; type: functional
A2780 [6] = test: cells; conditions: Homo sapiens, A2780, 48 h
Description: Antiproliferative activity against human A2780 cells after 48 hrs by MTT assay

A549 = test: cells; conditions: Homo sapiens, A549, 48 h
HCT-116 = test: Antiproliferative activity against human HCT-116 cells after 48 hrs by MTT assay; conditions: HCT-116, 48 h
Tubulin (Homo sapiens) [7] = target: T1, Tubulin (Homo sapiens) (UniProt P68371+Q9H4B7+P0DPH7+P68366+Q13509+Q71U36+P04350+Q3ZCM7+P07437+P68363+Q9BQE3+Q6PEY2+Q13885+Q9BVA1+Q9BUF5); test: Inhibition of tubulin polymerization in A549 cells assessed as disruption of microtubule network at 10 to 20 nM measured by immunofluorescence assay; type: cell-based; conditions: dose 10-20 nM
Tubulin (Homo sapiens) [8] = target: T1, Tubulin (Homo sapiens); test: Inhibition of tubulin polymerization in A549 cells assessed as disruption of microtubule network at 20 nM measured by immunofluorescence assay; type: cell-based
Tubulin = Tubulin (Sus scrofa, UniProt P02554+P02550); test: Inhibition of pig brain tubulin polymerization

Row | Compound | IC50 (MDA-MB-231) | IC50 (A2780 [6]) | IC50 (A549) | IC50 (HCT-116) | further results
1 | COc1ccc(C(=O)c2cc(OC)c(OC)c(OC)c2)cc1O [PHENSTATIN] | 51 nM | 120 nM | 21000 nM | 170 nM | IC50 (A2780cisR): 2850 nM; IC50 at 48 h [1]: 160 nM; IC50 [2]: 9350 nM; Ratio IC50 [3]: 77.9; Activity (A2780 [4]): Active; Ratio IC50 [5]: 23.8
2 | COc1ccc(C(=O)c2ccc(Br)cc2)cc1O | 2110 nM | 1160 nM | 224000 nM | 3650 nM | 
3 | COc1ccc(C(=O)c2ccc(F)cc2)cc1O | > 20000 nM | > 20000 nM | > 20000 nM | > 20000 nM | 
4 | COc1cc(OCCOc2no[n+]([O-])c2S(=O)(=O)c2ccccc2)cc(C(=O)c2ccc(Br)cc2)c1 |  |  |  |  | inhibition (Tubulin (Homo sapiens) [7]): Active; inhibition (Tubulin (Homo sapiens) [8]): Active; IC50 (Tubulin): 1600 nM
5 | COc1ccc(/C=C\c2cc(OC)c(OC)c(OC)c2)cc1O [COMBRETASTATIN A4] | 12 nM |  | 6 nM |  | 
6 | CC(=O)O[C@H]1C(=O)[C@@]2(C)[C@H]([C@H](OC(=O)c3ccccc3)[C@]3(O)C[C@H](OC(=O)[C@H](O)[C@@H](NC(=O)c4ccccc4)c4ccccc4)C(C)=C1C3(C)C)[C@]1(OC(C)=O)CO[C@@H]1C[C@@H]2O [PACLITAXEL] |  |  |  |  | IC50 at 48 h [1]: 18 nM
7 | COc1ccc(C(=O)c2ccc3ccccc3c2)cc1O | 120 nM | 170 nM | 34000 nM | 124000 nM | 

Continued, in another order:

Row | IC50 (MDA-MB-231) | IC50 (A2780 [6]) | IC50 (A549) | IC50 (HCT-116) | Compound | further results
8 | 1870 nM |  | 235000 nM | 2680 nM | O=S(=O)(c1ccccc1)c1no[n+]([O-])c1S(=O)(=O)c1ccccc1 | Activity (A2780 [4]): Active
9 | 4180 nM | 3690 nM | 6640 nM | 2650 nM | COc1ccc(C(=O)c2ccc(Cl)cc2)cc1O | 
